ChEMBL document CHEMBL5344454 (ACS Med Chem Lett, 2024)

Test: Inhibition of Huntingtin polyQ 49 mutant in Huntington's disease patient derived human iPSC cells incubated for 48 hrs by HTRF assay
Assay type: cell-based

IC50, < 100 nM:
Cc1cn2nc(-c3cc(F)c4nc(C5CCN(C6CC6)CC5)cn4c3)cc(C(F)F)c2n1
Cc1cn2nc(-c3cc(F)c4nc(C5CCNCC5)cn4c3)cc(C)c2n1
Cc1cn2nc(-c3cc(F)c4nn(C5CCNCC5)nc4c3)cc(C(F)F)c2n1
Cc1cn2nc(-c3cc(F)c4nc(N5CCC(N(C)C)CC5)oc4c3)cc(C(F)(F)F)c2n1
Cc1cn2nc(-c3cc(F)c4nc(C5CCN(C6COC6)CC5)cn4c3)cc(C)c2n1
Cc1cn2nc(-c3cc(F)c4nc(C5CCNC5)cn4c3)cc(C)c2n1 (stereo unspecified)
